target: T1, mGluR5 receptor (pig) (Sus scrofa, UniProt I3LUI7); test: [3H]-MPEP bond in the mGluR5 receptor bond assay (pig brain homogenate); assay type: binding; conditions: 5 nM [3H]-MPEP; pig brain homogenate
T1 construct: 450 μg protein from brain homogenate is incubated with 5 nM ^3[H]-MPEP; from tissue; host or cells: pig brain halves without medulla, cerebellum and pons
Description: I. Method for Determining the Inhibition of the [^3H]-MPEP Bond in the mGluR5 Receptor Bond Assay
Pig brain homogenate is produced by homogenisation (Polytron PT 3000, Kinematica AG, 10,000 rpm for 90 seconds) of pig brain halves without medulla, cerebellum and pons in buffer pH 8.0 (30 mM Hepes, Sigma, order no. H3375+1 tablet complete to 100 ml, Roche Diagnostics, order no. 1836145) in the ratio 1:20 (brain weight/volume) and differential centrifugation at 900×g and 40,000×g. In each case, 450 μg protein from brain homogenate is incubated with 5 nM ^3[H]-MPEP (Tocris, order no. […]
Thereafter, the batches are filtered with the help of a Brandel Cell Harvester (Brandel, TYP Robotic 9600) on unifilter plates with glass fibre filter mats (Perkin Elmer, order no. 6005177) and subsequently washed with buffer (as above) 3 times with in each case 250 μl per sample. The filter plates are subsequently dried for 60 min at 55° C. 30 μL Ultima Gold™ scintillator (Packard BioScience, order no. 6013159) is subsequently added per well and the samples are measured after 3 hours on the β-counter (Mikrobeta, Perkin Elmer). The unspecific bond is determined by addition of 10 μM MPEP (Tocris, order no. 1212).

T1 sequence (I3LUI7 19-1212): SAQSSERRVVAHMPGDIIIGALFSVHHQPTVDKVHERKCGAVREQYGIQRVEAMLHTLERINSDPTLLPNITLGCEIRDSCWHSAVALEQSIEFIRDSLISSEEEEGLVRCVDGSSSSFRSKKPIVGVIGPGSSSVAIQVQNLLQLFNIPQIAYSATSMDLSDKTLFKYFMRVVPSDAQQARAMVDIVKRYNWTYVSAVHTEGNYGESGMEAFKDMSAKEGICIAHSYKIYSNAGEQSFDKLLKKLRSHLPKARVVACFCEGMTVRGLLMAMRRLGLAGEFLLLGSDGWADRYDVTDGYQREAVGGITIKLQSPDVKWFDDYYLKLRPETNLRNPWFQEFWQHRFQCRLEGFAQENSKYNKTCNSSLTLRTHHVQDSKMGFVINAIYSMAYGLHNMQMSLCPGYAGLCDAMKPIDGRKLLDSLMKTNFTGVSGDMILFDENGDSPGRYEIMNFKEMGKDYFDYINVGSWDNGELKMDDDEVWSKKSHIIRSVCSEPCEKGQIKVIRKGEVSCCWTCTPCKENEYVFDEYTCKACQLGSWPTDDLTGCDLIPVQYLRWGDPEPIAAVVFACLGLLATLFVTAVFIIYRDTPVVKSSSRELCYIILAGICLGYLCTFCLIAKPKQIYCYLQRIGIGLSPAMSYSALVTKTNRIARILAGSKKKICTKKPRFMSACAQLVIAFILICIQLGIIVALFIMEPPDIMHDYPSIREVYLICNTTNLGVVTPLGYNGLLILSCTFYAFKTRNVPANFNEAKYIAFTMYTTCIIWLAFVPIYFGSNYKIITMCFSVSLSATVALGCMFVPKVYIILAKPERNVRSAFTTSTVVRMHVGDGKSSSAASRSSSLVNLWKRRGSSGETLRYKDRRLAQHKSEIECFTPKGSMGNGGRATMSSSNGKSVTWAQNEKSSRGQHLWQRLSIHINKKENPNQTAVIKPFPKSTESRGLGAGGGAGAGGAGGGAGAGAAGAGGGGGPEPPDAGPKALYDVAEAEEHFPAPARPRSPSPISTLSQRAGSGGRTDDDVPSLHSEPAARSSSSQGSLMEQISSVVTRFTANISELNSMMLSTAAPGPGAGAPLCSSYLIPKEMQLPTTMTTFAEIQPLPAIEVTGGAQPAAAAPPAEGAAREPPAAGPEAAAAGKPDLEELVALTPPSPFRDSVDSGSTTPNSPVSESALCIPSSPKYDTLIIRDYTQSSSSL

IC50 [nM] | Structure (SMILES)
12 | CN(CCc1ccccc1)C(=O)C#Cc1cccc(Cl)c1 [Example 1, 3-(3-chlorophenyl)-N-methyl-N-phenethylpropiolamide]
8 | CN(CCc1cccc(F)c1)C(=O)C#Cc1cccc(Cl)c1 [Example 221, 3-(3-chlorophenyl)-N-(3-fluorophenethyl)-N-methylpropiolamide]
12 | CN(CCc1cccnc1)C(=O)C#Cc1cccc(Cl)c1 [Example 243, 3-(3-chlorophenyl)-N-methyl-N-(2-(pyridine-3-yl)ethyl)propiolamide]

same assay, conditions: 10 μM test compound; 5 nM [3H]-MPEP; 450 μg protein pig brain homogenate; 60 min room temperature

inhibition at 10 µM [%] | Structure (SMILES)
91 | COc1cccc(C#CC(=O)NCCc2cccc(Cl)c2)c1 [Example 58, N-(3-chlorophenethyl)-3-(3-methoxyphenyl)propiolamide]
79 | O=C(C#Cc1cccs1)NCCc1ccccc1 [Example 85, N-phenethyl-3-(thiophene-2-yl)propiolamide]
82 | COc1cccc(C#CC(=O)NCCc2ccccn2)c1 [Example 6, 3-(3-methoxyphenyl)-N-(2-(pyridine-2-yl)ethyl)propiolamide]
53 | O=C(C#Cc1ccc(F)cc1)NCCc1ccc(Cl)cc1 [Example 140, N-(4-chlorophenethyl)-3-(4-fluorophenyl)propiolamide]
57 | COc1cccc(C#CC(=O)NCCc2ccc(C)cc2)c1 [Example 59, 3-(3-methoxyphenyl)-N-(4-methylphenethyl)propiolamide]
42 | O=C(C#Cc1ccc(F)cc1)NCCc1ccc(F)cc1 [Example 92, N-(4-fluorophenethyl)-3-(4-fluorophenyl)propiolamide]

system: rats; test: Formaline test in rats (phase 2, pain rate); assay type: in vivo, rat; conditions: i.v. administration at 21.5 mg/kg, formaline test phase 2
Description: III. Formaline Test in Rats:
The formaline test (Dubuisson, D. and Dennis, S. G., 1977, Pain, 4, 161-174) represents a model for acute and chronic pain. A biphasic nociceptive reaction, which is recorded by observation of three clearly differentiable behavioural patterns, is induced by a single formaline injection into the dorsal side of a rear paw in freely mobile test animals. The reaction has two phases: Phase 1=Immediate reaction (duration up to 10 min; paw shaking, licking), Phase 2=Late reaction (after a rest phase; likewise, paw shaking, licking; duration up to 60 min). The 1st phase reflects a direct stimulation of the peripheral nocisensors with high spinal nociceptive input or glutamate release (acute pain phase); the 2nd phase reflects a spinal and peripheral hypersensitisation (chronic pain phase). In the investigations presented here, the chronic pain component (phase 2) was evaluated.
Formaline with a volume of 50 μl and a concentration of 5% is administered subcutaneously into the dorsal side of the right rear paw of each animal. […] The calculation of PR is performed on the basis of a numerical weighting (=in each case factor 1, 2, 3) of the observed forms of behaviour (corresponding behavioural score 1, 2, 3) and is calculated with the following formula: […]

Structure (SMILES) | inhibition of the pain reaction [%]
CN(CCc1ccccc1)C(=O)C#Cc1cccc(Cl)c1 [Example 1, 3-(3-chlorophenyl)-N-methyl-N-phenethylpropiolamide] | 60

Reference: US20090182020A1, “SUBSTITUTED BIS(HETERO)AROMATIC N--ETHYLPROPIOLAMIDES AND USE THEREOF FOR PRODUCTION OF MEDICAMENTS” (GRUNENTHAL GMBH, priority 2005, published 2009)
